According to the CheMixHub viscosity set:

Assay: xn = mol fraction of the nth substance listed

CCOC(=O)c1ccccc1 + CCCCCCCCCC
101 kPa
Conditions | viscosity [mPa·s]
298.15 K, x2 = 0.0396 | 1.837
298.15 K, x2 = 0.1121 | 1.655
298.15 K, x2 = 0.151 | 1.566
298.15 K, x2 = 0.2285 | 1.42
298.15 K, x2 = 0.2637 | 1.355
298.15 K, x2 = 0.3109 | 1.289
298.15 K, x2 = 0.4026 | 1.176
298.15 K, x2 = 0.4449 | 1.136
298.15 K, x2 = 0.4949 | 1.088
298.15 K, x2 = 0.5326 | 1.056
298.15 K, x2 = 0.5928 | 1.011
298.15 K, x2 = 0.6401 | 0.982
298.15 K, x2 = 0.6988 | 0.947
298.15 K, x2 = 0.812 | 0.894
298.15 K, x2 = 0.8703 | 0.875
298.15 K, x2 = 0.9276 | 0.86
308.15 K, x2 = 0.0574 | 1.521
308.15 K, x2 = 0.0864 | 1.466
308.15 K, x2 = 0.1337 | 1.383
308.15 K, x2 = 0.1677 | 1.329
308.15 K, x2 = 0.1997 | 1.279
308.15 K, x2 = 0.2471 | 1.215
308.15 K, x2 = 0.2846 | 1.165
308.15 K, x2 = 0.3332 | 1.109
308.15 K, x2 = 0.3766 | 1.065
308.15 K, x2 = 0.4181 | 1.024
308.15 K, x2 = 0.4647 | 0.985
308.15 K, x2 = 0.5144 | 0.947
308.15 K, x2 = 0.5655 | 0.913
308.15 K, x2 = 0.6123 | 0.885
308.15 K, x2 = 0.6663 | 0.854
308.15 K, x2 = 0.7228 | 0.828
308.15 K, x2 = 0.7857 | 0.803
308.15 K, x2 = 0.8405 | 0.784
308.15 K, x2 = 0.9073 | 0.764
318.15 K, x2 = 0.0323 | 1.298
318.15 K, x2 = 0.07 | 1.235
318.15 K, x2 = 0.1012 | 1.188
318.15 K, x2 = 0.1446 | 1.128
318.15 K, x2 = 0.1842 | 1.078
318.15 K, x2 = 0.2269 | 1.027
318.15 K, x2 = 0.2679 | 0.984
318.15 K, x2 = 0.3143 | 0.939
318.15 K, x2 = 0.3561 | 0.903
318.15 K, x2 = 0.4045 | 0.866
318.15 K, x2 = 0.4499 | 0.835
318.15 K, x2 = 0.5021 | 0.803
318.15 K, x2 = 0.5496 | 0.777
318.15 K, x2 = 0.6035 | 0.752
318.15 K, x2 = 0.6545 | 0.73
318.15 K, x2 = 0.7126 | 0.708
318.15 K, x2 = 0.7674 | 0.69
318.15 K, x2 = 0.8289 | 0.674
318.15 K, x2 = 0.8862 | 0.661

C=C(C)C(=O)OCC + C1CCCCC1
viscosity [mPa·s], 101 kPa
Conditions | 298.15 K | 308.15 K
x1 = 0.0581 | 0.837 | 0.711
x1 = 0.1534 | 0.768 | 0.651
x1 = 0.2549 | 0.711 | 0.601
x1 = 0.3548 | 0.668 | 0.564
x1 = 0.3935 | 0.655 | 0.552
x1 = 0.5465 | 0.619 | 0.52
x1 = 0.5568 | 0.618 | 0.518
x1 = 0.6264 | 0.61 | 0.511
x1 = 0.7559 | 0.606 | 0.506
x1 = 0.8548 | 0.614 | 0.51
x1 = 0.9399 | 0.628 | 0.52

CCOC(=O)c1ccccc1 + CCCCCO
viscosity [mPa·s], 101.3 kPa
Conditions | x1 = 0.0771 | x1 = 0.1582 | x1 = 0.2437 | x1 = 0.3339 | x1 = 0.4292 | x1 = 0.53 | x1 = 0.6369 | x1 = 0.7504 | x1 = 0.8712
303 K | 2.883 | 2.764 | 2.656 | 2.533 | 2.404 | 2.273 | 2.135 | 1.985 | 1.865
308 K | 2.541 | 2.449 | 2.349 | 2.25 | 2.154 | 2.031 | 1.92 | 1.8 | 1.691
313 K | 2.224 | 2.139 | 2.051 | 1.962 | 1.875 | 1.787 | 1.701 | 1.615 | 1.528
318 K | 2.005 | 1.931 | 1.86 | 1.789 | 1.723 | 1.648 | 1.56 | 1.485 | 1.41
323 K | 1.798 | 1.739 | 1.68 | 1.626 | 1.569 | 1.505 | 1.439 | 1.376 | 1.313

CCCCCCCCCBr + ClC(Cl)(Cl)Cl
101 kPa
Conditions | viscosity [mPa·s]
297.75 K, x1 = 0.0486 | 0.9597
297.75 K, x1 = 0.0978 | 1.013
297.75 K, x1 = 0.1959 | 1.12
297.75 K, x1 = 0.3924 | 1.327
297.75 K, x1 = 0.5939 | 1.527
297.75 K, x1 = 0.7974 | 1.744
303.55 K, x1 = 0.0959 | 0.926
303.55 K, x1 = 0.2498 | 1.086
303.55 K, x1 = 0.3966 | 1.22
303.55 K, x1 = 0.5928 | 1.381
303.55 K, x1 = 0.7755 | 1.526
313.65 K, x1 = 0.0515 | 0.7651
313.65 K, x1 = 0.0985 | 0.8039
313.65 K, x1 = 0.1952 | 0.8852
313.65 K, x1 = 0.3592 | 1.028
313.65 K, x1 = 0.5926 | 1.189
313.65 K, x1 = 0.7767 | 1.301
